This test deals with T1, human orexin type 2 receptor (hOX2R) (Homo sapiens, UniProt O43614).
T1 construct: expressed in transfected cells
T1 sequence (O43614 1-444): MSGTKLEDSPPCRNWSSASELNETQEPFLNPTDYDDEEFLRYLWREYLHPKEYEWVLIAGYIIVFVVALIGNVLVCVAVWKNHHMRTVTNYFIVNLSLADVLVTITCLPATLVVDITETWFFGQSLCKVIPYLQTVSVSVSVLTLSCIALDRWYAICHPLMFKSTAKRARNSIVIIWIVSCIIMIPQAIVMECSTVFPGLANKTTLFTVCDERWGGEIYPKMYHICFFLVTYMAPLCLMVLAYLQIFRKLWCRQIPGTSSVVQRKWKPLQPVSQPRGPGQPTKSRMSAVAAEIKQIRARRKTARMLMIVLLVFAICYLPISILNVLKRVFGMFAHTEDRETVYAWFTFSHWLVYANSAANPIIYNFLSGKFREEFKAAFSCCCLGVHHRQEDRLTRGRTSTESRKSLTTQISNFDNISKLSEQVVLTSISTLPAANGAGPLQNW
As to the kind of experiment: Measurement of orexin type 2 receptor agonist activity (FLIPR calcium fluorescence). It counts as cell-based. The note with it: CHO cells expressing hOX2R, FLIPR calcium fluorescence; for EC50: read-out: hOx2 pEC50 (converted); for Emax: CHO, read-out: hOx2 Emax (%). As for the experimental part: The biological activity of the compounds of the present disclosure may be determined in cells stably expressing either orexin type 2 or orexin type 1 receptor. […] The agonist activity of a compound of the present disclosure may be determined by fluorescence value.
Stable cell line generation.
Measurement of orexin type 2 receptor agonist activity. […] As used herein, E. indicates the value at 10 μM concentration when orexin A is converted to a full agonist (maximum value of agonist activity. 100%).

The Emax is the size of the effect at its maximum, as opposed to the concentration needed. Turning to `CC(C)(O)C(=O)N1CC2(CC2)[C@H](NS(=O)(=O)C(F)F)[C@@H]1Cc1cccc(-c2cccc(F)c2)c1F` [Compound 164, N-((6S,7S)-6-((2,3′-difluoro-[1,1′-biphenyl]-3-yl)methyl)-5-(2-hydroxy-2-methylpropanoyl)-5-azaspiro[2.4]heptan-7-yl)-1,1-difluoromethanesulfonamide], the EC50 is 10 to 100 nM and the Emax was 80 to 90%.

Take `O=C([C@H]1CCO1)N1CC2(CC2)[C@H](NS(=O)(=O)CF)[C@@H]1Cc1cc(F)cc(-c2cc(F)ccc2F)c1F` [Compound 218, 1-fluoro-N-((6S,7S)-5-((R)-oxetane-2-carbonyl)-6-((2,2′,5,5′-tetrafluoro-[1,1′-biphenyl]-3-yl)methyl)-5-azaspiro[2.4]heptan-7-yl)methanesulfonamide]: the EC50 was 1 to 10 nM and the Emax fell in the range of 90 to 100%.

In the case of `CS(=O)(=O)N[C@@H]1[C@H](Cc2cccc(-c3ccccc3)c2F)N(C(=O)NC2CC(F)C2)CC12CC2` (stereo partly drawn) [Compound 315, (6S,7S)-6-((2-fluoro-[1,1′-biphenyl]-3-yl)methyl)-N-(3-fluorocyclobutyl)-7-(methylsulfonamido)-5-azaspiro[2.4]heptane-5-carboxamide], the EC50 was 10 to 100 nM and the Emax fell in the range of 80 to 90%.

Consider `CS(=O)(=O)N[C@@H]1[C@H](Cc2cccc(-c3ccccc3F)c2)N(C(=O)[C@H]2CCO2)CC12CC2` [Compound 40, N-((6S,7S)-6-((2′-fluoro-[1,1′-biphenyl]-3-yl)methyl)-5-((R)-oxetane-2-carbonyl)-5-azaspiro[2.4]heptan-7-yl)methanesulfonamide], for which the EC50 was 10 to 100 nM and the maximum response (Emax) fell in the range of 90 to 100%.

Take `O=C([C@H]1CCO1)N1CC2(CC2)[C@H](NS(=O)(=O)C(F)F)[C@@H]1Cc1cc(F)cc(-c2cc(F)cc(F)c2)c1F` [Compound 220, 1,1-difluoro-N-((6S,7S)-5-((R)-oxetane-2-carbonyl)-6-((2,3′,5,5′-tetrafluoro-[1,1′-biphenyl]-3-yl)methyl)-5-azaspiro[2.4]heptan-7-yl)methanesulfonamide]: the EC50 is 1 to 10 nM and the Emax fell in the range of 90 to 100%.

Turning to `O=C([C@H]1C[C@@H](F)C1)N1CC2(CC2)[C@H](NS(=O)(=O)C(F)F)[C@@H]1Cc1cccc(-c2ccccc2)c1F` [Compound 201, 1,1-difluoro-N-((6S,7S)-6-((2-fluoro-[1,1′-biphenyl]-3-yl)methyl)-5-((1s,3s)-3-fluorocyclobutane-1-carbonyl)-5-azaspiro[2.4]heptan-7-yl)methanesulfonamide], the EC50 is 1 to 10 nM and the maximal response (Emax) was in the range of 90 to 100%.

On to `[2H]c1ccc(-c2cc(F)cc(C[C@H]3[C@@H](NS(C)(=O)=O)C4(CC4)CN3C(=O)[C@H]3CCO3)c2F)cc1` [Compound 359], for which the EC50 was 10 to 100 nM and the maximal effect (Emax) was 90 to 100%.

For the molecule `CC(C)(O)C(=O)N1CC2(CC2)[C@H](NS(=O)(=O)C2CC2)[C@@H]1Cc1cccc(-c2cc(F)cc(F)c2)c1F` [Compound 230, N-((6S,7S)-5-(2-hydroxy-2-methylpropanoyl)-6-((2,3′,5′-trifluoro-[1,1′-biphenyl]-3-yl)methyl)-5-azaspiro[2.4]heptan-7-yl)cyclopropanesulfonamide], the EC50 was 1 to 10 nM and the maximal effect (Emax) lay within 90 to 100%.

For `COC1CN(C(=O)N2CC3(CC3)[C@H](NS(=O)(=O)CF)[C@@H]2Cc2cccc(-c3cc(F)cc(F)c3)c2F)C1` [Compound 402, 1-fluoro-N-((6S,7S)-5-(3-methoxyazetidine-1-carbonyl)-6-((2,3′,5′-trifluoro-[1,1′-biphenyl]-3-yl)methyl)-5-azaspiro[2.4]heptan-7-yl)methanesulfonamide], the EC50 is 1 to 10 nM and the Emax is 90 to 100%.

Take `CC(C)(F)CNC(=O)N1CC2(CC2)[C@H](NS(=O)(=O)CF)[C@@H]1Cc1cccc(-c2ccccc2)c1F` [Compound 410, (6S,7S)-N-(2-fluoro-2-methylpropyl)-6-((2-fluoro-[1,1′-biphenyl]-3-yl)methyl)-7-((fluoromethyl)sulfonamido)-5-azaspiro[2.4]heptane-5-carboxamide]: the EC50 is 1 to 10 nM and the Emax is 90 to 100%.

The values above are taken from patent US12503475B2 (Centessa Pharmaceuticals (UK) Limited, priority 2020, dated 2025).
